EP0639197B1, “EXCITATORY AMINO ACID ANTAGONISTS” (GUILFORD PHARMACEUTICALS INC., priority 1990, dated 1992)

How the values were obtained:
NMDA receptors = assay: Inhibition of specific binding of [3H]CGS-19755 to rat forebrain membranes; details: for IC50: [3H]CGS-19755 4.62 x 10^-9 M, rat forebrain membranes, 20min, 23 C, enriched mixtures, less than about 95% pure
Experimental: Binding studies: The potency of compounds to inhibit the specific binding of [^3H]CGS-19755 (specific activity 50.5 Ci/mmol, New England Nuclear, Boston, MA) to NMDA receptors was performed as described by Ferkany et al., (J. Pharmacology and Experimental Therapeutics, 1989, 250:100-109). Briefly, animals were sacrificed by decapitation, the forebrain removed immediately and the "buffy coat" prepared as described by Enna and Snyder (Enna, S. and Snyder, S.H., Molecular Pharmacology, 1977, 13:422-433). Crude synaptic membranes were stored frozen (-20 °C) until used. On the day of the assay, membranes were thawed to room temperature and homogenized in 20 vol (w/v) of assay buffer. The homogenate was centrifuged (48,000 x g; 10min; 4 °C), the supernatant decanted and the pellet resuspended as before. The procedure was repeated until the tissue had been washed 4 times to remove endogenous inhibitors.
For assay, the final pellet was resuspended in sufficient buffer (Tris HCl, 0.05M, pH 7.1, 23 °C) to yield a tissue concentration of 0.2mg of protein per ml. Two-milliliter portions of the suspension were added in duplicate to tubes containing ligand (final concentration = 4.62 x 10^- ^9 M) and the compound of interest ([…]). After an incubation of 20min (23 °C), the reaction was terminated by centrifugation, the supernatant was decanted and the pellets washed rapidly and superficially with 2 x 2.5ml of ice-cold buffer. Tissue was solubilized in Protosol (0.5 ml, New England Nuclear, Boston, MA) and after the addition of scintillant, radioactivity was determined using standard procedures.
Non specific binding was determined using L-glutamate at a final concentration of 10^-3 M. Routinely, IC50s were determined using 8-12 concentrations of inhibitor.

[1] = Inhibition of NMDA-induced seizures after i.c.v. administration; type: in vivo, male CF-1 mice; details: mouse, in vivo, icv or intrathecal; ratio of rotorod TD50 to NMDA-seizure ED50; ICV administration
Experimental: (§1) Anticonvulsant studies: The potency of the isomers of APCA to inhibit NMDA-induced seizures was evaluated using male CF-1 mice. All drugs were dissolved in isotonic saline and the pH adjusted to neutrality using NaOH. The test compounds were injected intracerebroventricularly (i.c.v.) in a final volume of […]. N-Methyl-D-aspartate (250mg/kg of body weight) was dissolved in saline (1% v/w of body weight) and injected intraperitoneally (i.p.) 15 minutes following the administration of the test agent. […] NMDA-induced seizures were defined as presence of tonic/clonic activity accompanied by hindlimb extension and death. Rotorod: Animals used for seizure studies were evaluated for motor impairment using the rotorod test. Before use all animals were tested for their ability to maintain equilibrium for 60 seconds on a 1-inch knurled bar rotating at a speed of 6 to 7 rpm. Each animal was given three separate trials. Animals performing the task in any of the three trials were used for further study.

NMDA-induced seizures = assay: as above; type: in vivo, male CF-1 mice; details: for ED50: Mus musculus, central, potency to inhibit NMDA-induced seizures, ICV administration 15 minutes before NMDA 250mg/kg i.p., mixtures enriched in the stated isomer, less than about 95% pure
Experimental: as §1

[2] = Rotorod test for motor impairment after i.c.v. administration; design: species or system male CF-1 mice; details: mouse, in vivo, icv or intrathecal; potency to impair rotorod performance; tested 10 minutes after i.c.v. administration; enriched mixtures, less than about 95% pure
Experimental: as §1
Animals were tested for impairment 10 minutes after i.c.v. administration of the test agent and 5 minutes before administration of the seizure-inducing agent. Each animal was tested on a maximum of three trials; completion of any one of the trials was screened as passing.

SMILES | IC50 (NMDA receptors) | selectivity ratio [1] | ED50 (NMDA-induced seizures) | TD50 at 10 min [2] | fold more potent than cis isomer C, the next most potent isomer (NMDA receptors; binding data of Table 2) | fold more potent than the next most potent isomer (NMDA-induced seizures; in vivo effects of Table 1)
O=C(O)C1CN(CCCP(=O)(O)O)CCN1 (racemic) [(±) CPP, 4-(3-phosphonopropyl)-2-piperazine carboxylic acid, reference compound] | 190 ± 15 nM | 4.5 | 2.2 mg/kg | 10 mg/kg | – | –
O=C(O)[C@H]1C[C@@H](CP(=O)(O)O)CCN1 (relative stereo) [CGS-19755, cis-4-(phosphonomethyl)-2-piperidinecarboxylic acid, reference compound] | – | 6.4 | 2.64 mg/kg | 17 mg/kg | – | –
N[C@H](C[C@H]1CCCC[C@H]1CCP(=O)(O)O)C(=O)O (single isomer, unassigned) [cis isomer A, 2-amino-4,5-(1,2-cyclohexyl)-7-phosphonoheptanoic acid] | 270 ± 12 nM | 30.5 | 1.05 mg/kg | 32 mg/kg | approximately 8 fold | at least 25 fold
